Experimental findings from ChEMBL document CHEMBL1132508, “N,N-dialkyl-dipeptidylamines as novel N-type calcium channel blockers” (Bioorg Med Chem Lett, 1999) are described below.

For experiment [1], the target named is Voltage-dependent N-type calcium channel subunit alpha-1B (Homo sapiens, UniProt Q00975). Kind of experiment: In vitro inhibitory activity against N-type calcium channel in the IMR-32 human neuroblastoma cells. In kind it is cell-based.
In experiment [2] the test system is Mus musculus. Nature of the experiment: Ability to prevent the audiogenic seizure (tonic seizure phase) in DBA/2 mice (N = 5 mice/ dose tested) tested in vivo at a concentration of 10 mg/kg. In kind it is functional.
Experiment [3] concerns Mus musculus. Nature of the experiment: Ability to prevent the audiogenic seizure (tonic seizure phase) in DBA/2 mice (N = 5 mice/ dose tested) tested in vivo at a concentration of 3 mg/kg. It counts as functional.
Experiment [4] concerns Mus musculus. Nature of the experiment: Ability to prevent the audiogenic seizure (tonic seizure phase) in DBA/2 mice (N = 5 mice/ dose tested) tested in vivo at a concentration of 100 mg/kg. It counts as functional.

The structures appear in SMILES notation. Square brackets hold non-standard residues; d marks the D form. Peptide text beside a SMILES is read from it. * marks the point of attachment. NMeL = CN[C@@H](CC(C)C)C(=O)O; Bz = O=C(c1ccccc1)*; NHtBu = CC(C)(C)N*

Voltage-dependent N-type calcium channel subunit alpha-1B, sequence (Q00975 whole entry): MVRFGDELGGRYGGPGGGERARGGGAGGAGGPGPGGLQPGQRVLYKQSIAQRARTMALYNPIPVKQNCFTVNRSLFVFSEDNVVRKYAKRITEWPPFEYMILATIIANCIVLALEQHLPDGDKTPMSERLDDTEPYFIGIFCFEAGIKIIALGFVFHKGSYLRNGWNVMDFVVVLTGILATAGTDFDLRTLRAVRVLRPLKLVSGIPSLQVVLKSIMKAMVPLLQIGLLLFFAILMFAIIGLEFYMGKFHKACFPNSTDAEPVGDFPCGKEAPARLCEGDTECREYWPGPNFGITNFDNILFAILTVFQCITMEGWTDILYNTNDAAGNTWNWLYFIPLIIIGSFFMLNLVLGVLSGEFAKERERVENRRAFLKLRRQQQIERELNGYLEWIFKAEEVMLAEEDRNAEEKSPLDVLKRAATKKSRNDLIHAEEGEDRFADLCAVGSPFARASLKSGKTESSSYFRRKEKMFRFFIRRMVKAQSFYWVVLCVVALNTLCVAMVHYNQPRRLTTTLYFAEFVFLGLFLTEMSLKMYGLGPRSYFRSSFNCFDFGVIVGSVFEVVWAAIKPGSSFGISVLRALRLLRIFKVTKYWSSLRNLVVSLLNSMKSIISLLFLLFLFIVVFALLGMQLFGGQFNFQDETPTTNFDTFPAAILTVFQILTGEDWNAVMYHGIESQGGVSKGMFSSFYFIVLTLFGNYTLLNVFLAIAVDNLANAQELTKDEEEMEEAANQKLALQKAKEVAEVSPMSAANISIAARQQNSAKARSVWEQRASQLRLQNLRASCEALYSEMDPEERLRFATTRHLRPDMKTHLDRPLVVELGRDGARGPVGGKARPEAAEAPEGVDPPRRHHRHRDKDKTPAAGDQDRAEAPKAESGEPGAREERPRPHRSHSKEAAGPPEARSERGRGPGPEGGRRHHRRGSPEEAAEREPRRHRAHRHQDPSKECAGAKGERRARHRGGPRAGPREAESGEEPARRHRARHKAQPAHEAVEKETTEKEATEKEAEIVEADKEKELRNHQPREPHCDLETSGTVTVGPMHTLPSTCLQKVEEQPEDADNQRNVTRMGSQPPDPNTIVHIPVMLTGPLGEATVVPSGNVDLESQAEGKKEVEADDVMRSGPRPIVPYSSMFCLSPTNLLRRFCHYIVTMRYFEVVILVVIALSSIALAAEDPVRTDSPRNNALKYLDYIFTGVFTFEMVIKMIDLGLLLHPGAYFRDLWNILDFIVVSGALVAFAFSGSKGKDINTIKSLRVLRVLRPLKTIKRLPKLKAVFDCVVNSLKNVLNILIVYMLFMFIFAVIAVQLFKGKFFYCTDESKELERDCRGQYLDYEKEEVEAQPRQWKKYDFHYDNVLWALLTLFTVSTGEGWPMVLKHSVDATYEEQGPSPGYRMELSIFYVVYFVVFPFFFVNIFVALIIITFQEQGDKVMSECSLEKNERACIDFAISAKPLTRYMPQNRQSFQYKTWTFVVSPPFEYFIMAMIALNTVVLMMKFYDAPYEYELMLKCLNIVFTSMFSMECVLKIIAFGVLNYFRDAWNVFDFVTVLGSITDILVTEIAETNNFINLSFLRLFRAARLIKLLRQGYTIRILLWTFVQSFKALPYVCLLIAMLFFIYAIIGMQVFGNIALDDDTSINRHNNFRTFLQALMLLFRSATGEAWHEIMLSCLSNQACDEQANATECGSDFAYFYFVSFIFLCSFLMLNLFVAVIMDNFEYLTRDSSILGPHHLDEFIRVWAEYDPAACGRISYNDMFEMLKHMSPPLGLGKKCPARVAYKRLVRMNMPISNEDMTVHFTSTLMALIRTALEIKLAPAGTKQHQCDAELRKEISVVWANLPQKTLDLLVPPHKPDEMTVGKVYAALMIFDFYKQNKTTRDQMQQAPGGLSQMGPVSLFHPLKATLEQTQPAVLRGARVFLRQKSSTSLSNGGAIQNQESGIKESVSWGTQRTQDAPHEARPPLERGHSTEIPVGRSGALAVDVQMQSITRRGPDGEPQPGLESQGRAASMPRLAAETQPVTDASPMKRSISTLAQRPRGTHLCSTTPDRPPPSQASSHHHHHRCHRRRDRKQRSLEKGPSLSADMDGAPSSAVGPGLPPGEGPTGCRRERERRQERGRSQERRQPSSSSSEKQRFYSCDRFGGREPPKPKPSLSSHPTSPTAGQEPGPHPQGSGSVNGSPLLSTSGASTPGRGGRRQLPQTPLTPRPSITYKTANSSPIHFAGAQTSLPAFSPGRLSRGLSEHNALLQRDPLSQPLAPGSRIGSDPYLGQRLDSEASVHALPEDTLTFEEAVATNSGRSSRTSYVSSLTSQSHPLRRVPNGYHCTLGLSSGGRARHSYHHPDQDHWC

The IC50 is the midpoint of a concentration-inhibition curve. Turning to `CC(C)C[C@H](NC(=O)N1CCCCCC1)C(=O)N[C@@H](Cc1ccc(OC(=O)c2ccccc2)cc1)C(=O)OC(C)(C)C`, the IC50 in experiment [1] amounted to 0.32 µM. As for `CC(C)C[C@@H](C(=O)N[C@@H](Cc1ccc(OC(=O)c2ccccc2)cc1)C(=O)NC(C)(C)C)N(C)CCC(C)(C)C`, the IC50 in experiment [1] amounted to 0.4 µM. Same read-out and setting: in the case of `CCOC(=O)CN(C)[C@@H](CC(C)C)C(=O)N[C@@H](Cc1ccc(OC(=O)c2ccccc2)cc1)C(=O)NC(C)(C)C` it was 4.4 µM; in that of `CC(C)C[C@@H](C(=O)N[C@@H](Cc1ccc(OC(=O)c2ccccc2)cc1)C(=O)NC(C)(C)C)N1CCCCC1`, 1.4 µM; in that of `CC(C)C[C@@H](C(=O)N[C@@H](Cc1ccc(OC(=O)c2ccccc2)cc1)C(=O)NC(C)(C)C)N1CCOCC1`, 6.4 µM. As for `CC(C)C[C@@H](C(=O)N[C@@H](Cc1ccc(OC(=O)c2ccccc2)cc1)C(=O)NC(C)(C)C)N(C)CCC(C)O` (some centres undefined), the Protection in experiment [2] came to 40%. Moreover, the IC50 in experiment [1] turned out to be 2.2 µM. For `CC(C)C[C@@H](C(=O)N[C@@H](Cc1ccc(OC(=O)c2ccccc2)cc1)C(=O)NC(C)(C)C)N(C)C1CCOCC1`, in experiment [1], the IC50 stood at 3.1 µM. Consider `CCCCN(C)[C@@H](CC(C)C)C(=O)N[C@@H](Cc1ccc(OC(=O)c2ccccc2)cc1)C(=O)NC(C)(C)C`, for which, in experiment [1], the IC50 worked out at 0.28 µM. Take `CC(C)CCN(C)[C@@H](CC(C)C)C(=O)N[C@@H](Cc1ccc(OC(=O)c2ccccc2)cc1)C(=O)NC(C)(C)C`: the Protection is recorded as 80% in experiment [2] and 20% in experiment [3]. Besides, the IC50 in experiment [1] is 0.32 µM. With `CC(C)C[C@H](NC(=O)N1CCCCCC1)C(=O)N[C@@H](Cc1ccc(OC(=O)c2ccccc2)cc1)C(=O)NC(C)(C)C`, the half-inhibitory concentration (IC50) in experiment [1] is 0.59 µM. On the same count and under the same terms, under `CCC(C)N(C)[C@@H](CC(C)C)C(=O)N[C@@H](Cc1ccc(OC(=O)c2ccccc2)cc1)C(=O)NC(C)(C)C` (some centres undefined) stands 1.5 µM; under `CC(C)C[C@@H](C(=O)N[C@@H](Cc1ccc(OC(=O)c2ccccc2)cc1)C(=O)NC(C)(C)C)N(C)C(C)C`, 2.8 µM; under `CC(C)C[C@@H](C(=O)N[C@@H](Cc1ccc(OC(=O)c2ccccc2)cc1)C(=O)NC(C)(C)C)N(C)C`, 2.3 µM. For `CC(C)C[C@@H](C(=O)N[C@@H](Cc1ccc(OC(=O)c2ccccc2)cc1)C(=O)NC(C)(C)C)N(C)CC(C)C`, the IC50 in experiment [1] came out at 0.38 µM.

Regarding `CC(C)C[C@@H](C(=O)N[C@@H](Cc1ccc(OC(=O)c2ccccc2)cc1)C(=O)NC(C)(C)C)N(C)CC1CCCCC1`, the Protection in experiment [2] is listed as 20%. In addition, the 50% inhibitory concentration (IC50) in experiment [1] stood at 0.7 µM.

In the case of `CC(C)C[C@@H](C(=O)N[C@@H](Cc1ccc(OC(=O)c2ccccc2)cc1)C(=O)NC(C)(C)C)N(C)C1CCCCC1`, the Protection in experiment [4] stood at 100%; in experiment [3], 20%. For the same compound, the half-inhibitory concentration (IC50) in experiment [1] is 0.2 µM. Consider `CC(C)C[C@H](N)C(=O)N[C@@H](Cc1ccc(OC(=O)c2ccccc2)cc1)C(=O)NC(C)(C)C` (H-Leu-Tyr(Bz)-NHtBu), for which the IC50 in experiment [1] turned out to be 3.8 µM. Turning to `CN[C@@H](CC(C)C)C(=O)N[C@@H](Cc1ccc(OC(=O)c2ccccc2)cc1)C(=O)NC(C)(C)C` (H-[NMeL]-Tyr(Bz)-NHtBu), the IC50 in experiment [1] was 2.3 µM.
